Data set [1] is described as follows: clinical. The class given is in vivo, human.
The format of data set [2] is in vivo, human.
The test system of data set [3] is UGT1A. Briefly: Formation of SN-38G from SN-38 in pooled human liver microsomes. It is filed as in vitro ADME. As to conditions: SN-38 5 μM, 30 min, microsomal protein 0.8 mg/mL. (In general: Microsomes from liver hold many membrane-bound enzymes, among them those of drug oxidation.)
For data set [4], the system named is UGT1A1 mRNA. Briefly: UGT1A1 mRNA levels in HCT116 cells by quantitative RT-PCR. The conditions noted are these: HCT 116 cells; methimazole 25–100 μM; up to ~48 h. The class given is cell-based, human.
Setting [5] is: courses with methimazole, plasma.
The mark [6] stands for this setting: courses without methimazole, plasma.
Setting [7] is: mean of the courses with or without methimazole, plasma.

The record followed here is PMC3016232 (Cancer Chemotherapy and Pharmacology, 2010).

Broadly, the AUC is the area under the concentration-time curve, a measure of exposure. A low value points to less exposure.

For the compound `CCc1c2c(nc3ccc(O)cc13)-c1cc3c(c(=O)n1C2)COC(=O)[C@]3(O)CC` [SN-38, 7-Ethyl-10-hydroxy camptothecin], the “mean relative extent of glucuronidation (ratio of SN-38G over SN-38)” value in data set [1] (courses with methimazole) was 10.1; in data set [1] (courses without methimazole) it was 6.85. Also, the “mean SN-38 AUC” value in data set [1] (setting [5]) is 125 ng·h/mL; in data set [1] (setting [6]), 110 ng·h/mL.
`CCc1c2c(nc3ccc(OC(=O)N4CCC(NCCCCC(=O)O)CC4)cc13)-c1cc3c(c(=O)n1C2)COC(=O)C3(O)CC` (centres unmarked) [APC, 7-Ethyl-10-[4-N-(5-aminopentanoic acid)-1-piperidino]-carbonyloxy-camptothecin]: the “mean exposure (AUC) to APC” value in data set [1] (setting [7]) is 3,018 ng × h/mL.
As to `CCc1c2c(nc3ccc(OC(=O)N4CCC(N5CCCCC5)CC4)cc13)-c1cc3c(c(=O)n1C2)COC(=O)[C@]3(O)CC` [irinotecan], the Irinotecan-related toxicity entry in data set [2] (all courses) is on record as “mild”. Further, the “mean absolute neutrophil count nadir” value in data set [2] (mean of all courses) was determined as 4.2e+09 L⁻¹. In data set [1] (male, human, in vivo), this compound returned an AUC of 16100 ng·h/mL.
Regarding `CCc1c2c(nc3ccc(O[C@@H]4O[C@H](C(=O)O)[C@@H](O)[C@H](O)[C@H]4O)cc13)-c1cc3c(c(=O)n1C2)COC(=O)[C@]3(O)CC` [SN-38G], the “mean SN-38G AUC” value in data set [1] (setting [5]) was 1,255 ng × h/mL; in data set [1] (setting [6]), 753 ng·h/mL.
`CC(=O)N1CCN(c2ccc(OCC3COC(Cn4ccnc4)(c4ccc(Cl)cc4Cl)O3)cc2)CC1` (centres unmarked) [ketoconazole]: the “reduction of SN-38G formation” value in data set [3] (ketoconazole 25 μM) is 43%.
Turning to `CCc1c2c(nc3ccc(OC(=O)N4CCC(N)CC4)cc13)-c1cc3c(c(=O)n1C2)COC(=O)[C@]3(O)CC` [NPC, 7-Ethyl-10-[4-amino-1-piperidino]-carbonyloxycamptothecin], the “mean exposure (AUC) to NPC” value in data set [1] (setting [7]) was determined as 32.3 ng·h/mL.
Turning to `Cn1cc[nH]c1=S` [methimazole], in data set [4], the “induction of UGT1A1 mRNA levels compared to untreated control cells” value is reported as 15–18 fold. In addition, the “effect on SN-38G formation” value in data set [3] (methimazole 37.5 μM) is recorded as “did not decrease”.
